Patent publication US11926619B2, “Certain pladienolide compounds and methods of use” (EISAI R&D MANAGEMENT CO., LTD., priority 2018, dated 2024)

How the values were obtained:
[1] = test system: Panc 05.04 cells (pancreatic cancer cells; Q699H and K700E mutations in SF3B1); assay: Cell viability assay (CellTiter-Glo, 72 hr), Panc 05.04 cells; type: cell-based; settings: Panc 05.04 cells (mutant SF3B1); for Emax: maximum achievable response in tested dose range, negative value = cellular lethality, read-out: Panc 05.04 (mt SF3B1 cells) Emax (%); for GI50: read-out: Panc 05.04 (mt SF3B1 cells), GI50
Summary of the method: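 Viability was read as ATP content (CellTiter-Glo) after 72 hr compound exposure of Panc 05.04 cells at 37 °C, nine concentrations, 0.1% DMSO. Percentage growth was referenced to time-zero and vehicle wells and plotted against concentration to obtain Emax; negative Emax denotes cell killing.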

[2] = test system: WiDr cells (colon cancer cells; wildtype SF3B1); assay: Cell viability assay (CellTiter-Glo, 72 hr), WiDr cells; type: cell-based; settings: Homo sapiens; WiDr cells (wildtype SF3B1); read-out: WiDr GI50
Summary of the method: (§1)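 Cells at 2000/well were exposed to 9 compound concentrations (0.1% DMSO) in duplicate or triplicate for 72 hr at 37 °C. ATP was read by CellTiter-Glo against a time-zero plate and DMSO control growth. Percent growth/viability was plotted against concentration to give Emax; negative values indicate lethality.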

[3] = test system: WiDr-R cells (colon cancer cells; chemically-induced SF3B1 R1074H mutant); assay: Cell viability assay (CellTiter-Glo, 72 hr), resistant WiDr-R cells (counter-screen); type: cell-based; settings: WiDr-R cells (SF3B1 R1074H mutation, resistant); read-out: WiDr-R GI50
Summary of the method: as §1

[4] = molecular target: T1, SF3b complexes (Homo sapiens, UniProt O75533+Q7RTV0); assay: Scintillation proximity assay (SPA) with [3H]-labelled pladienolide probe; type: binding; settings: wt SF3B1, read-out: SPA (wt SF3B1 cells) IC50
T1 construct: endogenous in cells
Summary of the method: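 SF3b complexes immunoprecipitated from nuclear extracts with anti-SF3B1 antibody on anti-mouse PVT SPA beads. Beads pre-incubated 30 min with varying PB or PB-OH, then 2.5 nM [3H]-PB added for 30 min; scintillation signal read and fit by non-linear regression.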

C/C(=C\C=C\[C@@H](C)c1ccccn1)[C@H]1OC(=O)C[C@H](O)CC[C@@](C)(O)[C@@H](OC(=O)N2CCN(C(C)(C)C)CC2)/C=C/[C@@H]1C
Emax [1]: -78.1% | GI50 [1]: 0.066 µM | GI50 [2]: 0.076 µM | GI50 [3]: > 1 µM | IC50 [4]: 0.0131 µM

C/C(=C\C=C\[C@@H](C)c1ccccn1)[C@H]1OC(=O)C[C@H](O)CC[C@H](C)[C@@H](OC(=O)N2CCN(C)CC2)/C=C/[C@@H]1C
Emax [1]: -94.3% | GI50 [1]: 0.00807 µM | GI50 [2]: 0.0153 µM | GI50 [3]: > 10 µM | IC50 [4]: 0.00378 µM

CC(=O)O[C@H]1/C=C/[C@H](C)[C@@H](/C(C)=C/C=C/[C@@H](C)c2ccccn2)OC(=O)C[C@H](O)CC[C@@H]1C
Emax [1]: 28.1% | GI50 [1]: 2.89 µM | GI50 [2]: 0.421 µM | GI50 [3]: > 10 µM | IC50 [4]: 0.538 µM

C/C(=C\C=C\C(C)(C)COC(=O)N1CCCC1)[C@H]1OC(=O)C[C@H](O)CC[C@@](C)(O)[C@@H](OC(=O)N2CCN(C3CCCCCC3)CC2)/C=C/[C@@H]1C
Emax [1]: -79.7% | GI50 [1]: 0.00443 µM | GI50 [2]: 0.00346 µM | GI50 [3]: 0.221 µM | IC50 [4]: 0.00514 µM

CCCNC(=O)OC[C@H](C)/C=C/C=C(\C)[C@H]1OC(=O)C[C@H](O)CC[C@@](C)(O)[C@@H](OC(C)=O)/C=C/[C@@H]1C
Emax [1]: 40.5% | GI50 [1]: 4.59 µM | GI50 [2]: 1.94 µM | GI50 [3]: > 10 µM | IC50 [4]: 0.473 µM

C/C(=C\C=C\[C@@H](C)c1ncccn1)[C@H]1OC(=O)C[C@H](O)CC[C@@](C)(O)[C@@H](OC(=O)N2CCN(C3CCCCCC3)CC2)/C=C/[C@@H]1C
Emax [1]: -92.9% | GI50 [1]: 0.0295 µM | GI50 [2]: 0.0336 µM | GI50 [3]: > 1 µM | IC50 [4]: 0.0081 µM

C/C(=C\C=C\[C@@H](C)c1ccccn1)[C@H]1OC(=O)CCCCC[C@@H](OC(=O)N2CCN(C)CC2)/C=C/[C@@H]1C
Emax [1]: -93.5% | GI50 [1]: 0.0751 µM | GI50 [2]: 0.0671 µM | GI50 [3]: > 10 µM | IC50 [4]: 0.0079 µM

C/C(=C\C=C\C(C)c1cc(C)ccn1)[C@H]1OC(=O)C[C@H](O)CC[C@@](C)(O)[C@@H](OC(=O)N2CCN(C3CCCCCC3)CC2)/C=C/[C@@H]1C (stereo partly shown)
Emax [1]: -92.4% | GI50 [1]: 0.0599 µM | GI50 [2]: 0.0587 µM | GI50 [3]: > 1 µM | IC50 [4]: 0.00679 µM

C/C(=C\C=C\[C@@H](C)COC(=O)N1CCCC1)[C@H]1OC(=O)C[C@H](O)CC[C@@](C)(O)[C@@H](OC(=O)N2CCN(C)CC2)/C=C/[C@@H]1C
Emax [1]: -90.3% | GI50 [1]: 0.00305 µM | GI50 [2]: 0.00383 µM | GI50 [3]: > 1 µM | IC50 [4]: 0.0021 µM

C/C(=C\C=C\[C@@H](C)c1ccccn1)[C@H]1OC(=O)CCCCC[C@@H](OC(=O)N(C)C)/C=C/[C@@H]1C
Emax [1]: 48.2% | GI50 [1]: 5.79 µM | GI50 [2]: 1.06 µM | GI50 [3]: 7.76 µM | IC50 [4]: > 1.2 µM

C/C(=C\C=C\[C@H](C)c1cccnc1)[C@H]1OC(=O)C[C@H](O)CC[C@@](C)(O)[C@@H](OC(=O)N2CCN(C3CCCCCC3)CC2)/C=C/[C@@H]1C
Emax [1]: -94.2% | GI50 [1]: 0.0204 µM | GI50 [2]: 0.0294 µM | GI50 [3]: > 1 µM | IC50 [4]: 0.00256 µM

CC(=O)O[C@H]1/C=C/[C@H](C)[C@@H](/C(C)=C/C=C/[C@@H](C)COC(=O)N2CCN(C)CC2)OC(=O)C[C@H](O)CC[C@@]1(C)O
Emax [1]: -88.8% | GI50 [1]: 0.203 µM | GI50 [2]: 0.106 µM | GI50 [3]: > 1 µM | IC50 [4]: 0.236 µM

C/C(=C\C=C\C(C)c1ccncc1)[C@H]1OC(=O)C[C@H](O)CC[C@@](C)(O)[C@@H](OC(=O)N2CCN(C3CCCCCC3)CC2)/C=C/[C@@H]1C (stereo partly shown)
Emax [1]: -95.1% | GI50 [1]: 0.00663 µM | GI50 [2]: 0.014 µM | GI50 [3]: > 1 µM | IC50 [4]: 0.00274 µM

C/C(=C\C=C\C(C)c1cccnn1)[C@H]1OC(=O)C[C@H](O)CC[C@@](C)(O)[C@@H](OC(=O)N2CCN(C)CC2)/C=C/[C@@H]1C (stereo partly shown)
Emax [1]: -90.9% | GI50 [1]: 0.0592 µM | GI50 [2]: 0.0187 µM | GI50 [3]: > 1 µM | IC50 [4]: 0.0092 µM

C/C(=C\C=C\[C@@H](C)COC(=O)N1CCCC1)[C@H]1OC(=O)C[C@H](O)CC[C@@](C)(O)[C@@H](OC(=O)N2CCN(C3CCCCCC3)CC2)/C=C/[C@@H]1C
Emax [1]: -87.3% | GI50 [1]: 0.00166 µM | GI50 [2]: 0.00254 µM | GI50 [3]: > 1 µM | IC50 [4]: 0.00283 µM

CC(=O)O[C@H]1/C=C/[C@H](C)[C@@H](/C(C)=C/C=C/[C@@H](C)COC(=O)N2CCC[C@H]2C)OC(=O)C[C@H](O)CC[C@@]1(C)O
Emax [1]: -79.3% | GI50 [1]: 0.00211 µM | GI50 [2]: 0.000983 µM | GI50 [3]: > 1 µM | IC50 [4]: 0.00272 µM

CCN(CC)C(=O)OC[C@H](C)/C=C/C=C(\C)[C@H]1OC(=O)C[C@H](O)CC[C@@](C)(O)[C@@H](OC(C)=O)/C=C/[C@@H]1C
Emax [1]: -92.2% | GI50 [1]: 0.025 µM | GI50 [2]: 0.0212 µM | GI50 [3]: > 10 µM | IC50 [4]: 0.0024 µM

C/C(=C\C=C\C(C)c1cccc(N2CCCC2)n1)[C@H]1OC(=O)C[C@H](O)CC[C@@](C)(O)[C@@H](OC(=O)N2CCN(C3CCCCCC3)CC2)/C=C/[C@@H]1C (stereo partly shown)
Emax [1]: -95.3% | GI50 [1]: 0.122 µM | GI50 [2]: 0.32 µM | GI50 [3]: > 1 µM | IC50 [4]: 0.0219 µM

C/C(=C\C=C\C(C)c1ncccc1C)[C@H]1OC(=O)C[C@H](O)CC[C@@](C)(O)[C@@H](OC(=O)N2CCN(C3CCCCCC3)CC2)/C=C/[C@@H]1C (stereo partly shown)
Emax [1]: -92.3% | GI50 [1]: 0.0212 µM | GI50 [2]: 0.0158 µM | GI50 [3]: > 1 µM | IC50 [4]: 0.00626 µM

C/C(=C\C=C\[C@H](C)c1ncccn1)[C@H]1OC(=O)C[C@H](O)CC[C@@](C)(O)[C@@H](OC(=O)N2CCN(C3CCCCCC3)CC2)/C=C/[C@@H]1C
Emax [1]: -93.1% | GI50 [1]: 0.0345 µM | GI50 [2]: 0.0381 µM | GI50 [3]: > 1 µM | IC50 [4]: 0.00657 µM

C/C(=C\C=C\[C@@H](C)CNC(=O)N1CCC[C@H]1CO)[C@H]1OC(=O)C[C@H](O)CC[C@@](C)(O)[C@@H](OC(=O)N2CCN(C3CCCCCC3)CC2)/C=C/[C@@H]1C
Emax [1]: -85% | GI50 [1]: 0.0773 µM | GI50 [2]: 0.0959 µM | GI50 [3]: > 1 µM | IC50 [4]: 0.0408 µM

C/C(=C\C=C\[C@@H](C)COC(=O)N1CCC[C@H]1CO)[C@H]1OC(=O)C[C@H](O)CC[C@@](C)(O)[C@@H](OC(=O)N2CCN(C3CCCCCC3)CC2)/C=C/[C@@H]1C
Emax [1]: -70.4% | GI50 [1]: 0.00239 µM | GI50 [2]: 0.00274 µM | GI50 [3]: 0.0401 µM | IC50 [4]: 0.00703 µM

C/C(=C\C=C\[C@@H](C)COC(=O)N1CCCC1)[C@H]1OC(=O)CCCCC[C@@H](NC(=O)N2CCN(C)CC2)/C=C/[C@@H]1C
Emax [1]: -93.6% | GI50 [1]: 0.019 µM | GI50 [2]: 0.0185 µM | GI50 [3]: > 1 µM | IC50 [4]: 0.0144 µM

CC(=O)O[C@H]1/C=C/[C@H](C)[C@@H](/C(C)=C/C=C/[C@@H](C)c2ccccn2)OC(=O)C[C@H](O)CC[C@@]1(C)O
Emax [1]: -16.1% | GI50 [1]: 0.538 µM | GI50 [2]: 0.231 µM | GI50 [3]: > 10 µM | IC50 [4]: 0.0451 µM

C/C(=C\C=C\[C@@H](C)COC(=O)N1[C@H](C)CC[C@H]1C)[C@H]1OC(=O)C[C@H](O)CC[C@@](C)(O)[C@@H](OC(=O)N2CCN(C)CC2)/C=C/[C@@H]1C
Emax [1]: -68.1% | GI50 [1]: 0.00112 µM | GI50 [2]: 0.00103 µM | GI50 [3]: > 1 µM | IC50 [4]: 0.00277 µM

C/C(=C\C=C\[C@@H](C)COC(=O)N1CCC[C@H]1CO)[C@H]1OC(=O)C[C@H](O)CC[C@@](C)(O)[C@@H](OC(=O)N2CCN(C)CC2)/C=C/[C@@H]1C
Emax [1]: -77.2% | GI50 [1]: 0.0203 µM | GI50 [2]: 0.0294 µM | GI50 [3]: > 1 µM | IC50 [4]: 0.014 µM
